Assay results: article PMC8391421, “Identification of Novel Positive Allosteric Modulators of Neurotrophin Receptors for the Treatment of Cognitive Dysfunction” (Cells, 2021)

Experiments:
C57BL/6J mice = experiment: Passive avoidance task; assay type: in vivo, mouse
Experimental: The passive avoidance (PA) task is an associate learning paradigm that is based on Pavlovian fear-conditioning and instrumental conditioning and conducted as previously described in male C57BL/6J mice (n = 7–8/group) from Charles River Laboratories, Sulzfeld, Germany. Vehicle or ACD855 (1, 3 or 10 mg/kg), formulated in 20% DMSO in 0.1 M sodium phosphate buffer pH 8.0, was administered daily (Days 1–4) through s.c. injections (4 mL/kg body weight). ACD856 (0.1, 0.3, 1 or 3 mg/kg) was administered by a single s.c. dose on the training day (Day 4). ACD855, ACD856, ANA-12 (0.5 mg/kg, from Sigma Aldrich, Stockholm, Sweden), physostigmine (0.025 mg/kg, from Sigma Aldrich, Stockholm, Sweden), or vehicle was administered 60 min prior to training, except for when addressing the effects on consolidation, in which case, ACD856 was dosed 5 min after the training session on day 4. Moreover, on the training day (Day 4), scopolamine or the NMDA-antagonist MK-801 (both from Sigma Aldrich, Stockholm, Sweden) at 0.3 mg/kg or vehicle was administered once s.c. 30 min prior to training. No compound was administered on the test day (Day 5), except for when addressing effects on retrieval, in which case, ACD856 was dosed 30 min prior to testing on day 5. Retention latencies and time spent in the bright compartment were determined 24 h after training (Day 5).

[1] = system: Shaffer collaterals-CA1 pathway, hippocampal slices; experiment: Facilitation of long-term potentiation in rat hippocampal slices; settings: 20 µM added 15 min before Ø burst stimulation; n = 7 slices from 5 rats
Experimental: Male Sprague Dawley rats (4–5 weeks old) from Charles River Laboratories, Sulzfeld, Germany, were used in these experiments. Rats were deeply anesthetized using isoflurane and decapitated soon after the disappearance of the corneal reflexes. The brains were removed and placed in ice-cold standard artificial CSF (aCSF) solution (124 mM NaCl, 30 mM NaHCO3, 10 mM glucose, 1.25 mM NaH2PO4, 3.5 mM KCl, 1 mM MgCl2, 2 mM CaCl2). Hippocampal horizontal sections (400 µm thick) were prepared using a Leica VT1200S vibratome (Leica Microsystems, Kista, Sweden). Immediately after slicing, sections were transferred into an interface incubation chamber filled with standard aCSF. The chamber was held at 34 °C during the slicing period and was subsequently allowed to cool down to room temperature. […] The facilitation of long-term potentiation (LTP) was monitored in the Shaffer collaterals (SC)-CA1 pathway in the hippocampus. […] Data were normalized with respect to the mean fEPSP slope recorded during the last 10 min of the baseline period.
It has been well-described that the transient, short-term plasticity of synaptic strength induced by a weak stimulation in hippocampal slices can turn into long-term potentiation (LTP) through the exogenous application of BDNF [71, 72, 73]. […] In the control slices, the recorded potentiation decreased to the baseline level after 60 min. […]

Cc1cc(-n2c(=O)[nH]c(=O)n(C)c2=O)ccc1Oc1ccc(S(=O)(=O)C(F)(F)F)cc1 [ACD855, Toltrazuril-sulfone]
effect on scopolamine-induced memory impairment (time spent in bright compartment) (C57BL/6J mice; 3 or 10 mg/kg s.c. once daily for four days, scopolamine 0.3 mg/kg): significantly attenuate
effect of ANA-12 on compound's reversal of scopolamine-induced memory impairment (C57BL/6J mice; ANA-12 0.5 mg/kg s.c.): blocked by ANA-12
effect on MK-801-induced memory impairment (C57BL/6J mice; MK-801 0.3 mg/kg): ameliorate
effect of combined administration with physostigmine on scopolamine-induced memory impairment (C57BL/6J mice; low dose of compound plus physostigmine 0.025 mg/kg): significantly reverse
effect of low dose alone on scopolamine-induced memory impairment (C57BL/6J mice; low doses given by themselves, physostigmine 0.025 mg/kg): no significant effect
pro-cognitive effects and other behavioral parameters in naive animals (C57BL/6J mice; naïve young healthy animals): none of the two compounds had any pro-cognitive effects
long-lasting potentiation of evoked synaptic responses (fEPSP slope), fold increase [1]: 1.21 ± 0.03 fold
